≈ marks a conversion by molar mass, not a printed value.
Columns and labels:
Pseudomonas aeruginosa = assay: Antimicrobial activity against Pseudomonas aeruginosa MTCC 2488 assessed as growth inhibition measured after overnight incubation by broth dilution method; format: functional
MDA-MB-435 = assay: Antitumor activity against human MDA-MB-435 cells assessed as cell growth at 0.1 uM; format: functional; conditions: read-out: Activity
NCI-H23 = assay: Antitumor activity against human NCI-H23 cells assessed as cell growth at 0.1 uM; format: functional; conditions: read-out: Activity
M14 = assay: Antitumor activity against human M14 cells assessed as cell growth at 0.1 uM; format: functional; conditions: read-out: Activity
CAKI-1 = assay: Antitumor activity against human CAKI-1 cells assessed as cell growth at 0.1 uM; format: functional; conditions: read-out: Activity
OVCAR-4 = assay: Antitumor activity against human OVCAR4 cells assessed as cell growth at 0.1 uM; format: functional; conditions: read-out: Activity
Candida albicans = assay: Antimicrobial activity against Candida albicans MTCC 227 assessed as growth inhibition measured after overnight incubation by broth dilution method; format: functional
SK-MEL-2 = assay: cells; conditions: Homo sapiens, SK-MEL-2, read-out: Activity
Description: Antitumor activity against human SK-MEL-2 cells assessed as cell growth at 0.1 uM

Aspergillus niger = assay: Antimicrobial activity against Aspergillus niger MTCC 282 assessed as growth inhibition measured after overnight incubation by broth dilution method; format: functional
[1] = Antitumor activity against human EKVX cells assessed as cell growth at 0.1 uM; format: functional; conditions: read-out: Activity
U-251 = assay: Antitumor activity against human U251 cells assessed as cell growth at 0.1 uM; format: functional; conditions: read-out: Activity
UACC-62 = assay: Antitumor activity against human UACC62 cells assessed as cell growth at 0.1 uM; format: functional; conditions: read-out: Activity
SF-295 = assay: Antitumor activity against human SF295 cells assessed as cell growth at 0.1 uM; format: functional; conditions: read-out: Activity
MDA-MB-468 = assay: Antitumor activity against human MDA-MB-468 cells assessed as cell growth at 0.1 uM; format: functional; conditions: read-out: Activity
MCF7 = assay: Antitumor activity against human MCF7 cells assessed as cell growth at 0.1 uM; format: functional; conditions: read-out: Activity
SK-OV-3 = assay: Antitumor activity against human SKOV3 cells assessed as cell growth at 0.1 uM; format: functional; conditions: read-out: Activity
HOP-62 = assay: Antitumor activity against human HOP62 cells assessed as cell growth at 0.1 uM; format: functional; conditions: read-out: Activity
HCT-116 = assay: Antitumor activity against human HCT116 cells assessed as cell growth at 0.1 uM; format: functional; conditions: read-out: Activity
SK-MEL-28 = assay: Antitumor activity against human SK-MEL-28 cells assessed as cell growth at 0.1 uM; format: functional; conditions: read-out: Activity
RPMI-8226 = assay: Antitumor activity against human RPMI8226 cells assessed as cell growth at 0.1 uM; format: functional; conditions: read-out: Activity
SN12C = assay: Antitumor activity against human SN12C cells assessed as cell growth at 0.1 uM; format: functional; conditions: read-out: Activity
HCT-15 = assay: Antitumor activity against human HCT15 cells assessed as cell growth at 0.1 uM; format: functional; conditions: read-out: Activity
RXF 393 = assay: Antitumor activity against human RXF393 cells assessed as cell growth at 0.1 uM; format: functional; conditions: read-out: Activity
SW-620 = assay: Antitumor activity against human SW620 cells assessed as cell growth at 0.1 uM; format: functional; conditions: read-out: Activity
Malme-3M = assay: Antitumor activity against human MALME-3M cells assessed as cell growth at 0.1 uM; format: functional; conditions: read-out: Activity
OVCAR-5 = assay: Antitumor activity against human OVCAR5 cells assessed as cell growth at 0.1 uM; format: functional; conditions: read-out: Activity
Streptococcus pyogenes = assay: Antimicrobial activity against Streptococcus pyogenes MTCC 442 assessed as growth inhibition measured after overnight incubation by broth dilution method; format: functional
DU-145 = assay: Antitumor activity against human DU145 cells assessed as cell growth at 0.1 uM; format: functional; conditions: read-out: Activity
[2] = Antitumor activity against human HCC2998 cells assessed as cell growth at 0.1 uM; format: functional; conditions: HCC 2998, read-out: Activity
LOX IMVI = assay: Antitumor activity against human LOXIMVI cells assessed as cell growth at 0.1 uM; format: functional; conditions: read-out: Activity
NCI-H460 = assay: Antitumor activity against human NCI-H460 cells assessed as cell growth at 0.1 uM; format: functional; conditions: read-out: Activity
Staphylococcus aureus = assay: Antimicrobial activity against Staphylococcus aureus MTCC 96 assessed as growth inhibition measured after overnight incubation by broth dilution method; format: functional
ACHN = assay: Antitumor activity against human ACHN cells assessed as cell growth at 0.1 uM; format: functional; conditions: read-out: Activity
SNB-19 = assay: Antitumor activity against human SNB19 cells assessed as cell growth at 0.1 uM; format: functional; conditions: read-out: Activity
[3] = Antitumor activity against human Hs 578T cells assessed as cell growth at 0.1 uM; format: functional; conditions: read-out: Activity
HT-29 = assay: Antitumor activity against human HT-29 cells assessed as cell growth at 0.1 uM; format: functional; conditions: read-out: Activity
NCI-H522 = assay: Antitumor activity against human NCI-H522 cells assessed as cell growth at 0.1 uM; format: functional; conditions: read-out: Activity
SF-539 = assay: Antitumor activity against human SF539 cells assessed as cell growth at 0.1 uM; format: functional; conditions: read-out: Activity
Aspergillus clavatus = assay: Antimicrobial activity against Aspergillus clavatus MTCC 1323 assessed as growth inhibition measured after overnight incubation by broth dilution method; format: functional
SR = assay: Antitumor activity against human SR cells assessed as cell growth at 0.1 uM; format: functional; conditions: read-out: Activity
BT-549 = assay: Antitumor activity against human BT549 cells assessed as cell growth at 0.1 uM; format: functional; conditions: read-out: Activity
MOLT-4 = assay: Antitumor activity against human MOLT4 cells assessed as cell growth at 0.1 uM; format: functional; conditions: read-out: Activity
CCRF-CEM = assay: Antitumor activity against human CCRF-CEM cells assessed as cell growth at 0.1 uM; format: functional; conditions: read-out: Activity
Escherichia coli = assay: Antimicrobial activity against Escherichia coli MTCC 443 assessed as growth inhibition measured after overnight incubation by broth dilution method; format: functional
SNB-75 = assay: Antitumor activity against human SNB75 cells assessed as cell growth at 0.1 uM; format: functional; conditions: read-out: Activity
SK-MEL-5 = assay: Antitumor activity against human SK-MEL-5 cells assessed as cell growth at 0.1 uM; format: functional; conditions: read-out: Activity
PC-3 = assay: Antitumor activity against human PC3 cells assessed as cell growth at 0.1 uM; format: functional; conditions: read-out: Activity
K562 = assay: Antitumor activity against human K562 cells assessed as cell growth at 0.1 uM; format: functional; conditions: read-out: Activity
IGROV-1 = assay: Antitumor activity against human IGROV1 cells assessed as cell growth at 0.1 uM; format: functional; conditions: read-out: Activity
UO-31 = assay: Antitumor activity against human UO31 cells assessed as cell growth at 0.1 uM; format: functional; conditions: read-out: Activity
NCI/ADR-RES = assay: Antitumor activity against human NCI/ADR-RES cells assessed as cell growth at 0.1 uM; format: functional; conditions: read-out: Activity
A549 = assay: Antitumor activity against human A549/ATCC cells assessed as cell growth at 0.1 uM; format: functional; conditions: read-out: Activity
A498 = assay: Antitumor activity against human A498 cells assessed as cell growth at 0.1 uM; format: functional; conditions: read-out: Activity
SF-268 = assay: Antitumor activity against human SF268 cells assessed as cell growth at 0.1 uM; format: functional; conditions: read-out: Activity
TK-10 = assay: Antitumor activity against human TK10 cells assessed as cell growth at 0.1 uM; format: functional; conditions: read-out: Activity
UACC-257 = assay: Antitumor activity against human UACC257 cells assessed as cell growth at 0.1 uM; format: functional; conditions: read-out: Activity
T47D = assay: Antitumor activity against human T47D cells assessed as cell growth at 0.1 uM; format: functional; conditions: read-out: Activity
[4] = tested on: Mycobacterium tuberculosis; assay: Antitubercular activity against Mycobacterium tuberculosis H37Rv assessed as growth inhibition after 12 to 28 days by L.J. agar MIC method; format: functional
OVCAR-8 = assay: Antitumor activity against human OVCAR8 cells assessed as cell growth at 0.1 uM; format: functional; conditions: read-out: Activity
NCI-H226 = assay: Antitumor activity against human NCI-H226 cells assessed as cell growth at 0.1 uM; format: functional; conditions: read-out: Activity
HOP-92 = assay: Antitumor activity against human HOP92 cells assessed as cell growth at 0.1 uM; format: functional; conditions: read-out: Activity
OVCAR-3 = assay: Antitumor activity against human OVCAR3 cells assessed as cell growth at 0.1 uM; format: functional; conditions: read-out: Activity
HL-60 = assay: Antitumor activity against human HL60(TB) cells assessed as cell growth at 0.1 uM; format: functional; conditions: read-out: Activity
MDA-MB-231 = assay: Antitumor activity against human MDA-MB-231/ATCC cells assessed as cell growth at 0.1 uM; format: functional; conditions: read-out: Activity

## Cc1ccc2sc(-c3ccc(NC(=O)CSc4nnc(-c5cccnc5SCc5ccccc5)o4)cc3)nc2c1
Pseudomonas aeruginosa
  MIC: 62.5 µg/mL (≈ 107 µM)
MDA-MB-435
  growth at 0.1 µM: 107%
NCI-H23
  growth at 0.1 µM: 96.6%
M14
  growth at 0.1 µM: 97.4%
CAKI-1
  growth at 0.1 µM: 87.8%
OVCAR-4
  growth at 0.1 µM: 98.8%
Candida albicans
  MIC: 250 µg/mL (≈ 430 µM)
SK-MEL-2
  growth at 0.1 µM: 89.8%
Aspergillus niger
  MIC: 1000 µg/mL (≈ 1720 µM)
[1]
  growth at 0.1 µM: 89.9%
U-251
  growth at 0.1 µM: 106%
UACC-62
  growth at 0.1 µM: 104%
SF-295
  growth at 0.1 µM: 107%
MDA-MB-468
  growth at 0.1 µM: 92.2%
MCF7
  growth at 0.1 µM: 81.2%
SK-OV-3
  growth at 0.1 µM: 105%
HOP-62
  growth at 0.1 µM: 96.8%
HCT-116
  growth at 0.1 µM: 95.4%
SK-MEL-28
  growth at 0.1 µM: 114%
RPMI-8226
  growth at 0.1 µM: 92.2%
SN12C
  growth at 0.1 µM: 102%
HCT-15
  growth at 0.1 µM: 111%
RXF 393
  growth at 0.1 µM: 114%
SW-620
  growth at 0.1 µM: 104%
Malme-3M
  growth at 0.1 µM: 99.3%
OVCAR-5
  growth at 0.1 µM: 107%
Streptococcus pyogenes
  MIC: 25 µg/mL (≈ 43 µM)
DU-145
  growth at 0.1 µM: 87.5%
[2]
  growth at 0.1 µM: 106%
LOX IMVI
  growth at 0.1 µM: 93.6%
NCI-H460
  growth at 0.1 µM: 101%
Staphylococcus aureus
  MIC: 100 µg/mL (≈ 172 µM)
ACHN
  growth at 0.1 µM: 90.8%
SNB-19
  growth at 0.1 µM: 104%
[3]
  growth at 0.1 µM: 92.3%
HT-29
  growth at 0.1 µM: 100%
NCI-H522
  growth at 0.1 µM: 87.9%
SF-539
  growth at 0.1 µM: 92.9%
Aspergillus clavatus
  MIC: 500 µg/mL (≈ 859 µM)
SR
  growth at 0.1 µM: 82.6%
BT-549
  growth at 0.1 µM: 91.6%
MOLT-4
  growth at 0.1 µM: 92.2%
CCRF-CEM
  growth at 0.1 µM: 93.1%
Escherichia coli
  MIC: 100 µg/mL (≈ 172 µM)
SNB-75
  growth at 0.1 µM: 95.6%
SK-MEL-5
  growth at 0.1 µM: 89.9%
PC-3
  growth at 0.1 µM: 91.8%
K562
  growth at 0.1 µM: 101%
IGROV-1
  growth at 0.1 µM: 99.7%
UO-31
  growth at 0.1 µM: 59.3%
NCI/ADR-RES
  growth at 0.1 µM: 99.5%
A549
  growth at 0.1 µM: 104%
A498
  growth at 0.1 µM: 105%
SF-268
  growth at 0.1 µM: 91.6%
TK-10
  growth at 0.1 µM: 118%
UACC-257
  growth at 0.1 µM: 113%
T47D
  growth at 0.1 µM: 87.8%
[4]
  growth inhibition (GI): 99%
[4]; Mycobacterium tuberculosis, H37Rv
  MIC: 62.5 µg/mL (≈ 107 µM)
OVCAR-8
  growth at 0.1 µM: 94.3%
NCI-H226
  growth at 0.1 µM: 80.8%
HOP-92
  growth at 0.1 µM: 93.4%
OVCAR-3
  growth at 0.1 µM: 100%
HL-60
  growth at 0.1 µM: 97.3%
MDA-MB-231
  growth at 0.1 µM: 71.4%

Source: ChEMBL document CHEMBL2331210, “New 2-benzylsulfanyl-nicotinic acid based 1,3,4-oxadiazoles: their synthesis and biological evaluation” (2013)
